# Reference: patent US20260262643A1, “HERBICIDAL BENZOXAZINES” (FMC CORPORATION, priority 2022, published 2026)
# Key:
# kochia [1] = assay: Test C postemergence; assay type: in vivo, Bassia scoparia; settings: 10 days
# How it was run: (§1)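 Visual injury score, 0–100 (100 = complete control), taken 10 days after treatment relative to untreated controls. Pre: directed spray onto soil over sown seeds. Post: foliar spray at one- to two-leaf stage, 2–10 cm. Solvent/surfactant formulation; loam–sand soil; greenhouse.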
# green foxtail [2] = assay: Test C preemergence; assay type: in vivo, Setaria viridis; settings: 0 to 100 scale (0 no effect, 100 complete control); for Plant response rating, Foxtail, Green: Preemergence, 500 g ai/ha, visual rating after 10 days; for Foxtail, Green plant response rating: Test C, preemergence, 125 g ai/ha
# How it was run: as §1
# wheat [3] = assay: Test C postemergence; assay type: in vivo, Triticum aestivum; settings: 10 days
# How it was run: as §1
# ducksalad = assay: Test D flooded paddy test; assay type: in vivo, Heteranthera limosa; settings: 250 g ai/ha, applied to paddy water, visual rating after 13 to 14 days, scale 0 to 100 (0 no effect, 100 complete control)
# How it was run: (§2)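 Plants grown to the 2-leaf stage; pots flooded to 3 cm above soil at treatment and held at that depth throughout. Test compounds applied directly to the paddy water. After 13 to 14 days in a greenhouse, response was rated visually versus controls on a 0 (no effect) to 100 (complete control) scale.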
# barnyardgrass [4] = assay: Test D flooded paddy test; assay type: in vivo, Echinochloa crus-galli; settings: 250 g ai/ha, applied to paddy water, visual rating after 13 to 14 days, scale 0 to 100 (0 no effect, 100 complete control)
# How it was run: as §2
# galium = assay: Test C postemergence; assay type: in vivo, Galium aparine; settings: 10 days
# How it was run: as §1
# corn [5] = assay: Test C postemergence; assay type: in vivo, Zea mays; settings: 10 days
# How it was run: as §1
# corn [6] = assay: Test C preemergence; assay type: in vivo, Zea mays; settings: 0 to 100 scale (0 no effect, 100 complete control); for Plant response rating, Corn: Preemergence, 500 g ai/ha, visual rating after 10 days; for Corn plant response rating: Test C, preemergence, 125 g ai/ha
# How it was run: as §1
# rice = assay: Test D flooded paddy test; assay type: in vivo, Oryza sativa; settings: 250 g ai/ha, applied to paddy water, visual rating after 13 to 14 days, scale 0 to 100 (0 no effect, 100 complete control)
# How it was run: as §2
# barnyardgrass [7] = assay: Test C postemergence; assay type: in vivo, Echinochloa crusgalli; settings: 10 days
# How it was run: as §1
# pigweed, palmer [8] = assay: Test C postemergence; assay type: in vivo, Amaranthus palmeri; settings: 10 days
# How it was run: as §1
# soybean [9] = assay: Test C preemergence; assay type: in vivo, Glycine max; settings: 0 to 100 scale (0 no effect, 100 complete control); for Plant response rating, Soybean: Preemergence, 500 g ai/ha, visual rating after 10 days; for Soybean plant response rating: Test C, preemergence, 125 g ai/ha
# How it was run: as §1
# kochia [10] = assay: Test C preemergence; assay type: in vivo, Bassia scoparia; settings: 0 to 100 scale (0 no effect, 100 complete control); for Plant response rating, Kochia: Preemergence, 500 g ai/ha, visual rating after 10 days; for Kochia plant response rating: Test C, preemergence, 125 g ai/ha
# How it was run: as §1
# oat, wild [11] = assay: Test C postemergence; assay type: in vivo, Avena fatua; settings: 10 days
# How it was run: as §1
# sedge, umbrella = assay: Test D flooded paddy test; assay type: in vivo, Cyperus difformis; settings: 250 g ai/ha, applied to paddy water, visual rating after 13 to 14 days, scale 0 to 100 (0 no effect, 100 complete control)
# How it was run: as §2
# wheat [12] = assay: Test C preemergence; assay type: in vivo, Triticum aestivum; settings: 0 to 100 scale (0 no effect, 100 complete control); for Plant response rating, Wheat: Preemergence, 500 g ai/ha, visual rating after 10 days; for Wheat plant response rating: Test C, preemergence, 125 g ai/ha
# How it was run: as §1
# blackgrass [13] = assay: Test C preemergence; assay type: in vivo, Alopecurus myosuroides; settings: 0 to 100 scale (0 no effect, 100 complete control); for Plant response rating, Blackgrass: Preemergence, 500 g ai/ha, visual rating after 10 days; for Blackgrass plant response rating: Test C, preemergence, 125 g ai/ha
# How it was run: as §1
# blackgrass [14] = assay: Test C postemergence; assay type: in vivo, Alopecurus myosuroides; settings: 10 days
# How it was run: as §1
# ragweed [15] = assay: Test C preemergence; assay type: in vivo, Ambrosia artemisiifolia; settings: 0 to 100 scale (0 no effect, 100 complete control); for Plant response rating, Ragweed: Preemergence, 500 g ai/ha, visual rating after 10 days; for Ragweed plant response rating: Test C, preemergence, 125 g ai/ha
# How it was run: as §1
# green foxtail [16] = assay: Test C postemergence; assay type: in vivo, Setaria viridis; settings: 10 days
# How it was run: as §1
# ragweed [17] = assay: Test C postemergence; assay type: in vivo, Ambrosia artemisiifolia; settings: 10 days
# How it was run: as §1
# ryegrass, Italian [18] = assay: Test C postemergence; assay type: in vivo, Lolium multiflorum; settings: 10 days
# How it was run: as §1
# ryegrass, Italian [19] = assay: Test C preemergence; assay type: in vivo, Lolium multiflorum; settings: 0 to 100 scale (0 no effect, 100 complete control); for Plant response rating, Ryegrass, Italian: Preemergence, 500 g ai/ha, visual rating after 10 days; for Ryegrass, Italian plant response rating: Test C, preemergence, 125 g ai/ha
# How it was run: as §1
# soybean [20] = assay: Test C postemergence; assay type: in vivo, Glycine max; settings: 10 days
# How it was run: as §1
# oat, wild [21] = assay: Test C preemergence; assay type: in vivo, Avena fatua; settings: 0 to 100 scale (0 no effect, 100 complete control); for Plant response rating, Oat, Wild: Preemergence, 500 g ai/ha, visual rating after 10 days; for Oat, Wild plant response rating: Test C, preemergence, 125 g ai/ha
# How it was run: as §1
# horseweed = assay: Test C postemergence; assay type: in vivo, Erigeron canadensis; settings: 10 days
# How it was run: as §1
# pigweed, palmer [22] = assay: Test C preemergence; assay type: in vivo, Amaranthus palmeri; settings: 0 to 100 scale (0 no effect, 100 complete control); for Plant response rating, Pigweed, Palmer: Preemergence, 500 g ai/ha, visual rating after 10 days; for Pigweed, Palmer plant response rating: Test C, preemergence, 125 g ai/ha
# How it was run: as §1
# barnyardgrass [23] = assay: Test C preemergence; assay type: in vivo, Echinochloa crusgalli; settings: 0 to 100 scale (0 no effect, 100 complete control); for Barnyardgrass plant response rating: 125 g ai/ha, preemergence; for Plant response rating, Barnyardgrass: Preemergence, 500 g ai/ha, visual rating after 10 days
# How it was run: as §1
# [24] = 125 g ai/ha, postemergence, 0 to 100 scale, 0 no effect, 100 complete control
# [25] = Postemergence, 500 g ai/ha, visual 0 to 100 scale (0 no effect, 100 complete control)
structure (smiles),measurement,setting,value
CCc1c(F)cc(-n2cnc(C(C)C)n2)cc1C(=O)N1C[C@H](C)Oc2c(Cl)cccc21 [Compound 152],"Plant response rating, Kochia",kochia [1]; [24],80
same,"Plant response rating, Kochia",kochia [1]; [25],80
same,"Plant response rating, Foxtail, Green",green foxtail [2],100
same,"Foxtail, Green plant response rating",green foxtail [2],100
same,"Plant response rating, Wheat",wheat [3]; [24],20
same,"Plant response rating, Wheat",wheat [3]; [25],20
same,"Plant response rating, Ducksalad (Flood)",ducksalad,0
same,"Plant response rating, Barnyardgrass (Flood)",barnyardgrass [4],0
same,"Plant response rating, Galium",galium; [24],100
same,"Plant response rating, Galium",galium; [25],100
same,"Plant response rating, Corn",corn [5]; [24],40
same,"Plant response rating, Corn",corn [5]; [25],70
same,"Plant response rating, Corn",corn [6],50
same,Corn plant response rating,corn [6],30
same,"Plant response rating, Rice (Flood)",rice,0
same,"Plant response rating, Barnyardgrass",barnyardgrass [7]; [24],60
same,"Plant response rating, Barnyardgrass",barnyardgrass [7]; [25],90
same,"Plant response rating, Pigweed, Palmer","pigweed, palmer [8]; [24]",80
same,"Plant response rating, Pigweed, Palmer","pigweed, palmer [8]; [25]",90
same,"Plant response rating, Soybean",soybean [9],70
same,Soybean plant response rating,soybean [9],50
same,"Plant response rating, Kochia",kochia [10],90
same,Kochia plant response rating,kochia [10],40
same,"Plant response rating, Oat, Wild","oat, wild [11]; [24]",0
same,"Plant response rating, Oat, Wild","oat, wild [11]; [25]",30
same,"Plant response rating, Sedge, Umbrella (Flood)","sedge, umbrella",0
same,"Plant response rating, Wheat",wheat [12],40
same,Wheat plant response rating,wheat [12],20
same,"Plant response rating, Blackgrass",blackgrass [13],60
same,Blackgrass plant response rating,blackgrass [13],50
same,"Plant response rating, Blackgrass",blackgrass [14]; [24],50
same,"Plant response rating, Blackgrass",blackgrass [14]; [25],70
same,"Plant response rating, Ragweed",ragweed [15],0
same,Ragweed plant response rating,ragweed [15],0
same,"Plant response rating, Foxtail, Green",green foxtail [16]; [24],40
same,"Plant response rating, Foxtail, Green",green foxtail [16]; [25],90
same,"Plant response rating, Ragweed",ragweed [17]; [24],40
same,"Plant response rating, Ragweed",ragweed [17]; [25],60
same,"Plant response rating, Ryegrass, Italian","ryegrass, Italian [18]; [24]",30
same,"Plant response rating, Ryegrass, Italian","ryegrass, Italian [18]; [25]",60
same,"Plant response rating, Ryegrass, Italian","ryegrass, Italian [19]",90
same,"Ryegrass, Italian plant response rating","ryegrass, Italian [19]",70
same,"Plant response rating, Soybean",soybean [20]; [24],100
same,"Plant response rating, Soybean",soybean [20]; [25],100
same,"Plant response rating, Oat, Wild","oat, wild [21]",70
same,"Oat, Wild plant response rating","oat, wild [21]",60
same,"Plant response rating, Horseweed",horseweed; [24],0
same,"Plant response rating, Horseweed",horseweed; [25],0
same,"Plant response rating, Pigweed, Palmer","pigweed, palmer [22]",90
same,"Pigweed, Palmer plant response rating","pigweed, palmer [22]",90
same,Barnyardgrass plant response rating,barnyardgrass [23],70
same,"Plant response rating, Barnyardgrass",barnyardgrass [23],90
Cc1cc(-n2cnc(C(C)C)n2)cc(C(=O)N2C[C@H](C)Oc3c(Cl)cccc32)c1F [Compound 223],"Plant response rating, Kochia",kochia [1]; [24],90
same,"Plant response rating, Kochia",kochia [1]; [25],90
same,"Plant response rating, Foxtail, Green",green foxtail [2],100
same,"Foxtail, Green plant response rating",green foxtail [2],100
same,"Plant response rating, Wheat",wheat [3]; [24],10
same,"Plant response rating, Wheat",wheat [3]; [25],30
same,"Plant response rating, Ducksalad (Flood)",ducksalad,80
same,"Plant response rating, Barnyardgrass (Flood)",barnyardgrass [4],10
same,"Plant response rating, Galium",galium; [24],100
same,"Plant response rating, Corn",corn [5]; [24],20
same,"Plant response rating, Corn",corn [5]; [25],80
same,"Plant response rating, Corn",corn [6],40
same,Corn plant response rating,corn [6],0
same,"Plant response rating, Rice (Flood)",rice,10
same,"Plant response rating, Barnyardgrass",barnyardgrass [7]; [24],20
same,"Plant response rating, Barnyardgrass",barnyardgrass [7]; [25],40
same,"Plant response rating, Pigweed, Palmer","pigweed, palmer [8]; [24]",80
same,"Plant response rating, Pigweed, Palmer","pigweed, palmer [8]; [25]",90
same,"Plant response rating, Soybean",soybean [9],70
same,Soybean plant response rating,soybean [9],10
same,"Plant response rating, Kochia",kochia [10],80
same,Kochia plant response rating,kochia [10],60
same,"Plant response rating, Oat, Wild","oat, wild [11]; [24]",10
same,"Plant response rating, Oat, Wild","oat, wild [11]; [25]",30
same,"Plant response rating, Sedge, Umbrella (Flood)","sedge, umbrella",95
same,"Plant response rating, Wheat",wheat [12],90
same,Wheat plant response rating,wheat [12],20
same,"Plant response rating, Blackgrass",blackgrass [13],90
same,Blackgrass plant response rating,blackgrass [13],40
same,"Plant response rating, Blackgrass",blackgrass [14]; [24],30
same,"Plant response rating, Blackgrass",blackgrass [14]; [25],70
same,"Plant response rating, Ragweed",ragweed [15],40
same,Ragweed plant response rating,ragweed [15],50
same,"Plant response rating, Foxtail, Green",green foxtail [16]; [24],30
same,"Plant response rating, Foxtail, Green",green foxtail [16]; [25],60
same,"Plant response rating, Ragweed",ragweed [17]; [24],0
same,"Plant response rating, Ragweed",ragweed [17]; [25],10
same,"Plant response rating, Ryegrass, Italian","ryegrass, Italian [18]; [24]",50
same,"Plant response rating, Ryegrass, Italian","ryegrass, Italian [18]; [25]",90
same,"Plant response rating, Ryegrass, Italian","ryegrass, Italian [19]",90
same,"Ryegrass, Italian plant response rating","ryegrass, Italian [19]",80
same,"Plant response rating, Soybean",soybean [20]; [24],100
same,"Plant response rating, Soybean",soybean [20]; [25],100
same,"Plant response rating, Oat, Wild","oat, wild [21]",70
same,"Oat, Wild plant response rating","oat, wild [21]",50
same,"Plant response rating, Horseweed",horseweed; [24],20
same,"Plant response rating, Horseweed",horseweed; [25],30
same,"Plant response rating, Pigweed, Palmer","pigweed, palmer [22]",100
same,"Pigweed, Palmer plant response rating","pigweed, palmer [22]",100
same,"Plant response rating, Barnyardgrass",barnyardgrass [23],100
same,Barnyardgrass plant response rating,barnyardgrass [23]; Test C,90
